Measurements: patent publication US9113629B2, “4-amino-6-(4-substituted-phenyl)-picolinates and 6-amino-2-(4-substituted-phenyl)-pyrimidine-4-carboxylates and their use as herbicides” (DOW AGROSCIENCES LLC, priority 2013, dated 2015)
Read-outs that look alike come from different tables or passages of the source.

Assays:
[1] = test system: test plant species in Direct Seeded Rice; test: Postemergence herbicidal activity in direct seeded rice (Table 13); format: in vivo; conditions: for pest or weed control at 35 g/ha / pest or weed control at 70 g/ha: post-emergence, 504 h; for pest or weed control at 35 g/ha: 35 g ai/ha; for pest or weed control at 70 g/ha: 70 g ai/ha
In short: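 Visual injury scores (0 no injury to 100 complete kill) taken 20-22 days after treatment were converted by probit analysis into GR20–GR90 doses. Treatment was an overhead track spray at 187 L/ha onto second-to-third true leaf plants, using acetone/DMSO (final 16.2%/0.5%) with Agri-dex crop oil; solvent blank served as control.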

APESV = test: Pre-emergent Test III, preemergent activity in wheat and barley; format: in vivo, Apera spica-venti
Procedure: (§1) Pre-emergent Test III. Seeds of test species were planted into square plastic pots (10 cm wide) containing sandy loam soil. After planting, all pots were sub-irrigated 16 h prior to compound application. A weighed amount, determined by the highest rate to be tested, of each test compound was placed in a 25 mL glass vial and was dissolved in 4 mL of a 97:3 v/v mixture of acetone and DMSO to obtain concentrated stock solutions. […] The concentrated stock solutions obtained were diluted with 20 mL of an aqueous mixture containing water and 0.02% w/v (weight/volume) of Triton X-155 to obtain spray solutions containing the highest application rates. Additional application rates were obtained by serial dilution of 12 mL of the high rate solution into a solution containing 2 mL of 97:3 v/v mixture of acetone and DMSO and 10 mL of an aqueous mixture containing water and 0.02% w/v (weight/volume) of Triton X-155 to obtain 1⁄2×, 1⁄4×, 1⁄8× and 1/16× rates of the high rate. Compound requirements are based upon a 12 mL application volume at a rate of 187 liters per hectare (L/ha). Formulated compounds were applied to the soil surface with an overhead Mandel track sprayer equipped with […] nozzles calibrated to deliver 187 L/ha over an application area of 0.503 square meters. Control pots were sprayed in the same manner with the solvent blank. The treated pots and control pots were placed in a greenhouse as described above and watered through surface irrigation. After 21 d, the condition of the test pots as compared with that of the untreated pots was determined visually and scored on a scale of 0 to 100 percent where 0 corresponds to no herbicidal effect and 100 corresponds to plant death or lack of emergence from the soil. By applying the well-accepted probit analysis as described by J. Berkson in Journal of the American Statistical Society, 48, 565 (1953) and by D. Finney in “Probit Analysis” Cambridge University Press (1952), the above data can be used to calculate GR20, GR50, GR80 and GR90 values, which are defined as growth reduction factors that correspond to the effective dose of herbicide required to kill or control 20 percent, 50 percent, 80 percent or 90 percent, respectively, of a target plant.

LOLSS = test: as above; format: in vivo, Lolium multiflorum, Lolium rigidum
Procedure: as §1

[2] = BRAPP: broadleaf signalgrass, Brachiaria platyphylla, probit analysis
[3] = CYPSS: sedge (Cyperus difformis, esculentus, iria), probit analysis
[4] = ECHSS: barnyardgrass (Echinochloa crus-galli), junglerice (Echinochloa colonum), probit analysis
[5] = LEFSS: sprangletop (Leptochloa chinensis, Leptochloa dubia), probit analysis
[6] = SCPJU: Japanese bulrush, Scirpus juncoides, probit analysis
[7] = SEBEX: hemp sesbania, Sesbania exaltata, probit analysis
[8] = BRAPP: broadleaf signalgrass, Brachiaria platyphylla, read-out: Visual Growth Reduction (%) 21 Days After Application BRAPP
[9] = CYPSS: sedge (Cyperus difformis, esculentus, iria), read-out: Visual Growth Reduction (%) 21 Days After Application CYPSS
[10] = ECHSS: barnyardgrass (Echinochloa crus-galli), junglerice (Echinochloa colonum), read-out: Visual Growth Reduction (%) 21 Days After Application ECHSS
[11] = LEFSS: sprangletop (Leptochloa chinensis, Leptochloa dubia), read-out: Visual Growth Reduction (%) 21 Days After Application LEFSS
[12] = ORYSS: Oryza sativa, read-out: Visual Growth Reduction (%) 21 Days After Application ORYSS
[13] = SCPJU: Japanese bulrush, Scirpus juncoides, read-out: Visual Growth Reduction (%) 21 Days After Application SCPJU
[14] = SEBEX: hemp sesbania, Sesbania exaltata, read-out: Visual Growth Reduction (%) 21 Days After Application SEBEX
[15] = 21 days after application, dose to kill or control 50%, probit analysis
[16] = 21 days after application, dose to kill or control 80%, probit analysis

In the case of `COC(=O)c1nc(-c2ccc(Cl)c(F)c2)c(F)c(N)c1Cl` [Compound 216], the “GR50 BRAPP” value [1, 2] is reported as 8 g ai/ha, the “GR80 BRAPP” value [1, 2] is reported as 27 g ai/ha and the “GR50 CYPSS” value [1, 3] is reported as 10 g ai/ha. For the same molecule, the “GR80 CYPSS” value [1, 3] was 70 g ai/ha, the “GR50 ECHSS” value [1, 4] was 4 g ai/ha and the “GR80 ECHSS” value [1, 4] was 15 g ai/ha. The “GR50 LEFSS” value [1, 5] was 8 g ai/ha, the “GR80 LEFSS” value [1, 5] was 23 g ai/ha and the “GR20 ORYSS” value ([1]; ORYSS: Oryza sativa (crop), probit analysis) was greater than 70 g ai/ha. For the same molecule, the “GR50 SCPJU” value [1, 6] was 1 g ai/ha, the “GR80 SCPJU” value [1, 6] was 1 g ai/ha and the “GR50 SEBEX” value [1, 7] was 1 g ai/ha. For the same molecule, the “GR80 SEBEX” value [1, 7] was 1 g ai/ha, the pest or weed control at 35 g/ha [1, 8] was 85 to 94% and the pest or weed control at 70 g/ha [1, 8] was 85 to 94%. The pest or weed control at 35 g/ha [1, 9] was 85 to 94%, the pest or weed control at 70 g/ha [1, 9] was 85 to 94% and the pest or weed control at 35 g/ha [1, 10] was 85 to 94%. It also gave a pest or weed control at 70 g/ha [1, 10] of 95 to 100%, a pest or weed control at 35 g/ha [1, 11] of 85 to 94% and a pest or weed control at 70 g/ha [1, 11] of 95 to 100%. For the same molecule, the pest or weed control at 35 g/ha [1, 12] was 0 to 29%, the pest or weed control at 70 g/ha [1, 12] was 0 to 29% and the pest or weed control at 35 g/ha [1, 13] was 95 to 100%. It also gave a pest or weed control at 70 g/ha [1, 13] of 95 to 100%, a pest or weed control at 35 g/ha [1, 14] of 95 to 100% and a pest or weed control at 70 g/ha [1, 14] of 95 to 100%.
For `COC(=O)c1nc(-c2ccc(Br)c(F)c2)c(F)c(N)c1Cl` [Compound 49], the “Visual Growth Reduction (%) 21 Days After Application, APESV” value (APESV; 35 g ai/ha) was “F (30-44)”, the “Visual Growth Reduction (%) 21 Days After Application, APESV” value (APESV; 70 g ai/ha) was “E (45-59)” and the “GR50 APESV” value (APESV; [15]) was greater than 70 g ai/ha. For the same molecule, the “GR80 APESV” value (APESV; [16]) was greater than 70 g ai/ha, the “Visual Growth Reduction (%) 21 Days After Application, LOLSS” value (LOLSS; 35 g ai/ha) was “G (0-29)” and the “Visual Growth Reduction (%) 21 Days After Application, LOLSS” value (LOLSS; 70 g ai/ha) was “G (0-29)”. For the same molecule, the “GR50 LOLSS” value (LOLSS; [15]) was greater than 70 g ai/ha and the “GR80 LOLSS” value (LOLSS; [16]) was greater than 70 g ai/ha.
